PubChem BioAssay AID1963842 (Molecular Pharmacology Branch, DTP, NCI, 2024)

Test system: 677734-321-R-J1-PDC complex spheroid viability
Assay: Anticancer human tumor 677734-321-R-J1-PDC patient-derived soft tissue sarcoma cell line growth inhibition [POLQ]
Settings: for IC50: curve of first compound; for viability, T/C: stronger effect = lower value
Outline: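 Patient-derived tumour cells were co-cultured with HUVEC and mesenchymal stem cells as multicellular spheroids at 37 °C. They were treated with POLQ inhibitors (novobiocin, ART-558, RP6685) alone or combined with other agents. Top concentrations were at or near clinical Cmax (otherwise 10 microM; SN-38 at 1 microM), decreasing in half-log steps.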

[1] = second compound 0.0316 µM, first compound 0.0316 µM
[2] = second compound 0.0316 µM, first compound 0.1 µM
[3] = second compound 0.1 µM, first compound 0.0316 µM
[4] = second compound 0.1 µM, first compound 0.1 µM
[5] = second compound 0.316 µM, first compound 0.0316 µM
[6] = second compound 0.316 µM, first compound 0.1 µM
[7] = second compound 1 µM, first compound 0.0316 µM
[8] = second compound 1 µM, first compound 0.1 µM
[9] = second compound 3.16 µM, first compound 0.0316 µM
[10] = second compound 3.16 µM, first compound 0.1 µM
[11] = second compound 10 µM, first compound 0.0316 µM
[12] = second compound 10 µM, first compound 0.1 µM
[13] = second compound 0.0316 µM, first compound 0.316 µM
[14] = second compound 0.0316 µM, first compound 1 µM
[15] = second compound 0.0316 µM, first compound 3.16 µM
[16] = second compound 0.0316 µM, first compound 10 µM
[17] = second compound 0.1 µM, first compound 0.316 µM
[18] = second compound 0.1 µM, first compound 1 µM
[19] = second compound 0.1 µM, first compound 3.16 µM
[20] = second compound 0.1 µM, first compound 10 µM
[21] = second compound 0.316 µM, first compound 0.316 µM
[22] = second compound 0.316 µM, first compound 1 µM
[23] = second compound 0.316 µM, first compound 3.16 µM
[24] = second compound 0.316 µM, first compound 10 µM
[25] = second compound 1 µM, first compound 0.316 µM
[26] = second compound 1 µM, first compound 1 µM
[27] = second compound 1 µM, first compound 3.16 µM
[28] = second compound 1 µM, first compound 10 µM
[29] = second compound 3.16 µM, first compound 0.316 µM
[30] = second compound 3.16 µM, first compound 1 µM
[31] = second compound 3.16 µM, first compound 3.16 µM
[32] = second compound 3.16 µM, first compound 10 µM
[33] = second compound 10 µM, first compound 0.316 µM
[34] = second compound 10 µM, first compound 1 µM
[35] = second compound 10 µM, first compound 3.16 µM
[36] = second compound 10 µM, first compound 10 µM
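Note: spheroids exposed to compounds for one week.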
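Throughout, for viability, T/C: 100% = vehicle DMSO treated spheroids.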

SMILES: CC[C@@]1(O)C(=O)OCc2c1cc1n(c2=O)Cc2cc3c(CN(C)C)c(O)ccc3nc2-1 + Cc1cccc(N(C)C(=O)C2C(O)CCN2c2nc(C)cc(C(F)(F)F)c2C#N)c1
- IC50 (second compound 0.0316 µM): 0.0262 µM
- IC50 (second compound 0.1 µM): 0.0262 µM
- IC50 (second compound 0.316 µM): 0.023 µM
- IC50 (second compound 1 µM): 0.0275 µM
- IC50 (second compound 3.16 µM): 0.0243 µM
- IC50 (second compound 10 µM): 0.0253 µM
- viability, T/C (second compound 0.0316 µM, first compound 0.000316 µM): 104%
- viability, T/C (second compound 0.0316 µM, first compound 0.001 µM): 105%
- viability, T/C (second compound 0.0316 µM, first compound 0.00316 µM): 102%
- viability, T/C (second compound 0.0316 µM, first compound 0.01 µM): 102%
- viability, T/C [1]: 39.4%
- viability, T/C [2]: 15.8%
- viability, T/C (second compound 0.1 µM, first compound 0.000316 µM): 103%
- viability, T/C (second compound 0.1 µM, first compound 0.001 µM): 113%
- viability, T/C (second compound 0.1 µM, first compound 0.00316 µM): 108%
- viability, T/C (second compound 0.1 µM, first compound 0.01 µM): 99.9%
- viability, T/C [3]: 40.2%
- viability, T/C [4]: 21.1%
- viability, T/C (second compound 0.316 µM, first compound 0.000316 µM): 112%
- viability, T/C (second compound 0.316 µM, first compound 0.001 µM): 112%
- viability, T/C (second compound 0.316 µM, first compound 0.00316 µM): 100%
- viability, T/C (second compound 0.316 µM, first compound 0.01 µM): 91.3%
- viability, T/C [5]: 34.1%
- viability, T/C [6]: 17.8%
- viability, T/C (second compound 1 µM, first compound 0.000316 µM): 124%
- viability, T/C (second compound 1 µM, first compound 0.001 µM): 96.4%
- viability, T/C (second compound 1 µM, first compound 0.00316 µM): 105%
- viability, T/C (second compound 1 µM, first compound 0.01 µM): 100%
- viability, T/C [7]: 42.2%
- viability, T/C [8]: 17.6%
- viability, T/C (second compound 3.16 µM, first compound 0.000316 µM): 120%
- viability, T/C (second compound 3.16 µM, first compound 0.001 µM): 100%
- viability, T/C (second compound 3.16 µM, first compound 0.00316 µM): 109%
- viability, T/C (second compound 3.16 µM, first compound 0.01 µM): 94.1%
- viability, T/C [9]: 37%
- viability, T/C [10]: 17.5%
- viability, T/C (second compound 10 µM, first compound 0.000316 µM): 108%
- viability, T/C (second compound 10 µM, first compound 0.001 µM): 100%
- viability, T/C (second compound 10 µM, first compound 0.00316 µM): 98.2%
- viability, T/C (second compound 10 µM, first compound 0.01 µM): 91.9%
- viability, T/C [11]: 39.8%
- viability, T/C [12]: 23.2%

SMILES: C=CC(=O)N1CCN(c2nc(=O)n(-c3c(C)ccnc3C(C)C)c3nc(-c4c(O)cccc4F)c(F)cc23)C(C)C1 (stereo not drawn) + Cc1cccc(N(C)C(=O)C2C(O)CCN2c2nc(C)cc(C(F)(F)F)c2C#N)c1
- IC50 (second compound 0.0316 µM): > 10 µM
- IC50 (second compound 0.1 µM): > 10 µM
- IC50 (second compound 0.316 µM): > 10 µM
- IC50 (second compound 1 µM): > 10 µM
- IC50 (second compound 3.16 µM): > 10 µM
- IC50 (second compound 10 µM): > 10 µM
- viability, T/C [1]: 108%
- viability, T/C [2]: 99.5%
- viability, T/C [13]: 103%
- viability, T/C [14]: 104%
- viability, T/C [15]: 110%
- viability, T/C [16]: 88%
- viability, T/C [3]: 105%
- viability, T/C [4]: 104%
- viability, T/C [17]: 101%
- viability, T/C [18]: 107%
- viability, T/C [19]: 102%
- viability, T/C [20]: 93.4%
- viability, T/C [5]: 106%
- viability, T/C [6]: 105%
- viability, T/C [21]: 103%
- viability, T/C [22]: 103%
- viability, T/C [23]: 113%
- viability, T/C [24]: 92%
- viability, T/C [7]: 109%
- viability, T/C [8]: 94.9%
- viability, T/C [25]: 107%
- viability, T/C [26]: 104%
- viability, T/C [27]: 108%
- viability, T/C [28]: 85.5%
- viability, T/C [9]: 101%
- viability, T/C [10]: 100%
- viability, T/C [29]: 105%
- viability, T/C [30]: 108%
- viability, T/C [31]: 108%
- viability, T/C [32]: 81.8%
- viability, T/C [11]: 105%
- viability, T/C [12]: 100%
- viability, T/C [33]: 98.6%
- viability, T/C [34]: 103%
- viability, T/C [35]: 81.1%
- viability, T/C [36]: 80.1%

SMILES: CC1COCCN1c1cc(C2(S(C)(=N)=O)CC2)nc(-c2ccnc3[nH]ccc23)n1 (stereo not drawn) + COC1C(OC(N)=O)C(O)C(Oc2ccc3c(O)c(NC(=O)c4ccc(O)c(CC=C(C)C)c4)c(=O)oc3c2C)OC1(C)C
- IC50 (second compound 0.0316 µM): 5.96 µM
- IC50 (second compound 0.1 µM): 4.24 µM
- IC50 (second compound 0.316 µM): 3.12 µM
- IC50 (second compound 1 µM): 4.67 µM
- IC50 (second compound 3.16 µM): 3.85 µM
- IC50 (second compound 10 µM): 3.85 µM
- viability, T/C [1]: 109%
- viability, T/C [2]: 117%
- viability, T/C [13]: 95.5%
- viability, T/C [14]: 101%
- viability, T/C [15]: 62.4%
- viability, T/C [16]: 39.5%
- viability, T/C [3]: 110%
- viability, T/C [4]: 113%
- viability, T/C [17]: 106%
- viability, T/C [18]: 93%
- viability, T/C [19]: 58.7%
- viability, T/C [20]: 24.3%
- viability, T/C [5]: 109%
- viability, T/C [6]: 104%
- viability, T/C [21]: 104%
- viability, T/C [22]: 91.1%
- viability, T/C [23]: 49.5%
- viability, T/C [24]: 18.5%
- viability, T/C [7]: 112%
- viability, T/C [8]: 98.7%
- viability, T/C [25]: 100%
- viability, T/C [26]: 92.2%
- viability, T/C [27]: 62.3%
- viability, T/C [28]: 24.3%
- viability, T/C [9]: 109%
- viability, T/C [10]: 104%
- viability, T/C [29]: 99.6%
- viability, T/C [30]: 98.8%
- viability, T/C [31]: 55.5%
- viability, T/C [32]: 22.9%
- viability, T/C [11]: 108%
- viability, T/C [12]: 107%
- viability, T/C [33]: 106%
- viability, T/C [34]: 92%
- viability, T/C [35]: 56%
- viability, T/C [36]: 21.6%

SMILES: O=C(c1cc(Cc2n[nH]c(=O)c3ccccc23)ccc1F)N1CCN(C(=O)C2CC2)CC1 + Nc1ccc(C#CCN(C(=O)Cc2ncc(C(F)(F)F)cc2C(F)(F)F)c2ccc(F)cc2)nn1
- IC50 (second compound 0.0316 µM): > 10 µM
- IC50 (second compound 0.1 µM): > 10 µM
- IC50 (second compound 0.316 µM): > 10 µM
- IC50 (second compound 1 µM): > 10 µM
- IC50 (second compound 3.16 µM): > 10 µM
- IC50 (second compound 10 µM): > 10 µM
- viability, T/C [1]: 97%
- viability, T/C [2]: 122%
- viability, T/C [13]: 101%
- viability, T/C [14]: 105%
- viability, T/C [15]: 88.1%
- viability, T/C [16]: 63.3%
- viability, T/C [3]: 110%
- viability, T/C [4]: 102%
- viability, T/C [17]: 98.6%
- viability, T/C [18]: 110%
- viability, T/C [19]: 83.8%
- viability, T/C [20]: 71.2%
- viability, T/C [5]: 110%
- viability, T/C [6]: 116%
- viability, T/C [21]: 104%
- viability, T/C [22]: 93.2%
- viability, T/C [23]: 96.1%
- viability, T/C [24]: 68.8%
- viability, T/C [7]: 109%
- viability, T/C [8]: 108%
- viability, T/C [25]: 96.5%
- viability, T/C [26]: 93%
- viability, T/C [27]: 92.7%
- viability, T/C [28]: 50.3%
- viability, T/C [9]: 123%
- viability, T/C [10]: 110%
- viability, T/C [29]: 89.4%
- viability, T/C [30]: 92.8%
- viability, T/C [31]: 90.9%
- viability, T/C [32]: 65.3%
- viability, T/C [11]: 109%
- viability, T/C [12]: 103%
- viability, T/C [33]: 103%
- viability, T/C [34]: 105%
- viability, T/C [35]: 91.9%
- viability, T/C [36]: 66.8%
